Earlier results as cited in patent US20240292871A1, “A SWEETENER OR SWEETNESS ENHANCER COMPOSITION” (ANALYTICON DISCOVERY GMBH, priority 2020, published 2024).

Conditions: 5% sucrose in water

COc1ccc([C@@H]2CC(=O)c3c(O)cc(O)cc3O2)cc1O [hesperetin]
enhances the sweetness of sucrose: 41%
